From patent publication US12091406B2, “Lysine acetyltransferase 6A (KAT6A) inhibitors and uses thereof” (Insilico Medicine IP Limited, priority 2021, dated 2024)

Legend:
[1] = Kinetic solubility in 50 mM phosphate buffer (pH 7.4); assay type: physicochemical; conditions: comparison in words, data of Table 3
Protocol: 10 μL of 10 mM in DMSO of test and control compounds was added into lower chambers of whatman miniuniprep vials, respectively. 490 μL of 50 mM PB (pH 7.4) was added into lower chambers of the whatman miniuniprep vials, respectively. The solubility samples were vortexted for at least 2 minutes. The miniuniprep vials were shaken on a shaker for 24 hours at room temperature at the speed of 800 rpm and then centrifuged for 20 minutes (eg. 4000 rpm). The miniunipreps were compressed to prepare the filtrates for injection into HPLC system to calculate the concentration with standard curve.

Caco-2 cells = test: Permeability in Caco-2 Assay; assay type: in vitro ADME; conditions: comparison in words, data of Table 4
Protocol: Permeability of test compounds was determined in Caco-2 Assay. Caco-2 cells purchased from ATCC were seeded onto […] (PET) in 96-well Corning Insert plates at 1×10^5 cells/cm2, and refreshed medium every 4˜5 days until to the 21st to 28th day for confluent cell monolayer formation. The transport buffer in the study was HBSS with 10.0 mM HEPES at pH 7.40±0.05. Test compound was tested at 2.00 μM bi-directionally in duplicate. Digoxin was tested at 10.0 μM bi-directionally in duplicate, while nadolol and metoprolol were tested at 2.00 μM in A to B direction in duplicate. Final DMSO concentration was adjusted to less than 1%. The plate was incubated for 2 hours in CO2 incubator at 37±1° C., with 5% CO2 at saturated humidity without shaking. And all samples after mixed with acetonitrile containing internal standard were centrifuged at 3200×g for 10 min. For nadolol and metoprolol, 200 μL supernatant solution was diluted with 600 μL ultra-pure water for LC-MS/MS analysis. For digoxin and test compounds, 200 μL supernatant solution was diluted with 200 μL ultra-pure water for LC-MS/MS analysis. Concentrations of test and control compounds in starting solution, donor solution, and receiver solution were quantified by LC-MS/MS methodologies, using peak area ratio of analyte/internal standard. […]

kinetic solubility compared with otherwise identical compound having X as carbon [1]: improved kinetic solubility | permeability compared with reference compound (Caco-2 cells): improved permeability
Compound: COc1cccc(OC)c1S(=O)(=O)Nc1noc2cc(Oc3nccs3)c3c(c12)OCCC3 [Compound 35, 2,6-dimethoxy-N-(5-(thiazol-2-yloxy)-3,4-dihydro-2H-chromeno[8,7-d]isoxazol-9-yl)benzenesulfonamide]
